Test results from PubChem BioAssay AID248 (DTP/NCI, 2004).
“And” between values parts separate entries of the source, which are not always exact repeats. Identical values can stand only once. Toxic doses and inconclusive results are not listed. No stated cut-off is given here; in the data, active means T/C of 150% or more; inactive means T/C below 125%.

System: L1210 leukemia ip in BDF1 mice, survival T/C
Experiment: NCI In Vivo Anticancer Drug Screen. Data for tumor model L1210 Leukemia (intraperitoneal) in B6D2F1 (BDF1) mice
Details: endpoint: mean survival time, higher = longer survival
How it was run: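 Antitumor effect is assessed in tumor-bearing animals. Survival in the compound arm is compared with a vehicle-dosed control arm and expressed as their quotient.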

[1] = dose: 6.25 mg/kg/injection, schedule: Q04DX002 (ip), vehicle: saline with Tween-80
[2] = dose: 12.5 mg/kg/injection, schedule: Q04DX002 (ip), vehicle: saline with Tween-80
[3] = dose: 25.0 mg/kg/injection, schedule: Q04DX002 (ip), vehicle: saline with Tween-80
[4] = dose: 25.0 mg/kg/injection, schedule: Q01DX009 (ip), vehicle: saline with Tween-80
[5] = dose: 50.0 mg/kg/injection, schedule: Q01DX009 (ip), vehicle: saline with Tween-80
[6] = dose: 100.0 mg/kg/injection, schedule: Q01DX009 (ip), vehicle: saline with Tween-80
[7] = dose: 100.0 mg/kg/injection, schedule: Q04DX002 (ip), vehicle: saline with Tween-80
[8] = dose: 100.0 mg/kg/injection, schedule: Q01DX009 (ip), vehicle: Klucel (hydroxypropylcellulose) (HPC)
[9] = dose: 100.0 mg/kg/injection, schedule: Q04DX003 (ip), vehicle: Klucel (hydroxypropylcellulose) (HPC)
[10] = dose: 200.0 mg/kg/injection, schedule: Q01DX009 (ip), vehicle: Klucel (hydroxypropylcellulose) (HPC)
[11] = dose: 200.0 mg/kg/injection, schedule: Q04DX003 (ip), vehicle: Klucel (hydroxypropylcellulose) (HPC)
[12] = dose: 400.0 mg/kg/injection, schedule: Q01DX009 (ip), vehicle: Klucel (hydroxypropylcellulose) (HPC)
[13] = dose: 400.0 mg/kg/injection, schedule: Q04DX003 (ip), vehicle: Klucel (hydroxypropylcellulose) (HPC)
[14] = dose: 100.0 mg/kg/injection, schedule: Q04DX002 (ip), vehicle: saline
[15] = dose: 200.0 mg/kg/injection, schedule: Q04DX002 (ip), vehicle: saline
[16] = dose: 400.0 mg/kg/injection, schedule: Q04DX002 (ip), vehicle: saline
[17] = dose: 100.0 mg/kg/injection, schedule: Q01DX009 (ip), vehicle: saline
[18] = dose: 200.0 mg/kg/injection, schedule: Q01DX009 (ip), vehicle: saline
[19] = dose: 400.0 mg/kg/injection, schedule: Q01DX009 (ip), vehicle: saline
[20] = dose: 100.0 mg/kg/injection, schedule: Q04DX003 (ip), vehicle: saline with Tween-80
[21] = dose: 200.0 mg/kg/injection, schedule: Q04DX003 (ip), vehicle: saline with Tween-80
[22] = dose: 400.0 mg/kg/injection, schedule: Q04DX003 (ip), vehicle: saline with Tween-80
[23] = dose: 200.0 mg/kg/injection, schedule: Q01DX009 (ip), vehicle: saline with Tween-80
[24] = dose: 400.0 mg/kg/injection, schedule: Q01DX009 (ip), vehicle: saline with Tween-80
[25] = dose: 100.0 mg/kg/injection, schedule: Q01DX001 (ip), vehicle: saline
[26] = dose: 400.0 mg/kg/injection, schedule: Q01DX001 (ip), vehicle: saline

Measured: T/C

c1ccc(C[As+](c2ccccc2)(c2ccccc2)c2ccccc2)cc1
inactive: dose: 5.0 mg/kg/injection, schedule: Q01DX001 (ip), vehicle: saline 101 % of control | [1] 97 % of control | dose: 10.0 mg/kg/injection, schedule: Q01DX001 (ip), vehicle: saline 90 % of control | [2] 86 % of control | dose: 20.0 mg/kg/injection, schedule: Q01DX001 (ip), vehicle: saline 93 % of control | [3] 101 % of control | dose: 40.0 mg/kg/injection, schedule: Q01DX001 (ip), vehicle: saline 109 % of control

CCC(CN(C)C)C(=O)c1ccccc1 (stereo unspecified)
inactive: dose: 6.0 mg/kg/injection, schedule: Q01DX009 (ip), vehicle: saline 93 % of control | dose: 12.0 mg/kg/injection, schedule: Q01DX009 (ip), vehicle: saline 91 % of control | [4] 93 % of control | dose: 25.0 mg/kg/injection, schedule: Q01DX009 (ip), vehicle: saline 88 % of control | [3] 100 % of control | [5] 96 % of control | dose: 50.0 mg/kg/injection, schedule: Q04DX002 (ip), vehicle: saline with Tween-80 96 % of control | [6] 93 % of control | [7] 104 % of control

NC1=C(c2ccccc2)C(=O)c2ccccc21
inactive: [8] 107 % of control | [9] 106 % of control | [10] 86 % of control | [11] 95 % of control | [12] 96 % of control | [13] 90 % of control

CCOC(=O)C1C(=O)C(CN(CCCl)CCCl)C(=O)C(C(=O)OCC)C1c1cc(OC)c(OC)c(OC)c1 (stereo unspecified)
inactive: dose: 100.0 mg/kg/injection, schedule: Q04DX002 (ip), vehicle: Klucel (hydroxypropylcellulose) (HPC) 114 % of control | dose: 200.0 mg/kg/injection, schedule: Q04DX002 (ip), vehicle: Klucel (hydroxypropylcellulose) (HPC) 102 % of control | dose: 400.0 mg/kg/injection, schedule: Q04DX002 (ip), vehicle: Klucel (hydroxypropylcellulose) (HPC) 111 % of control

NC(Cc1cnc(N=Nc2ccc(S(N)(=O)=O)cc2)[nH]1)C(=O)O (stereo unspecified)
inactive: dose: 50.0 mg/kg/injection, schedule: Q01DX009 (ip), vehicle: Klucel (hydroxypropylcellulose) (HPC) 100 % of control | [8] 93 % of control | [10] 93 % of control

O=C(C[n+]1ccccc1Br)c1cccc2ccccc12
inactive: dose: 9.38 mg/kg/injection, schedule: Q01DX001 (ip), vehicle: other 103 % of control

Cc1nonc1C(=O)O
inactive: [14] 102 % of control | [15] 87 % of control | [16] 98 % of control

O=C(O)COCC(F)(F)C(F)(F)C(F)(F)COCC(=O)O
inactive: [17] 92 % of control | dose: 100.0 mg/kg/injection, schedule: Q04DX003 (ip), vehicle: saline 97 % of control | [18] 97 % of control | dose: 200.0 mg/kg/injection, schedule: Q04DX003 (ip), vehicle: saline 98 % of control | [19] 110 % of control | dose: 400.0 mg/kg/injection, schedule: Q04DX003 (ip), vehicle: saline 93 % of control

O=C1C2C(Cl)C(Cl)C(Cl)C(Cl)C2C(=O)N1NC1CCC([N+](=O)[O-])CC1[N+](=O)[O-] (stereo unspecified)
inactive: [17] 91 % of control | [14] 92 % of control | [18] 94 % of control | [15] 106 % of control | [19] 98 % of control | [16] 95 % of control

CC(=O)Nc1cc2[nH]cnc2c(Br)n1
inactive: dose: 25.0 mg/kg/injection, schedule: Q01DX005 (ip), vehicle: saline 100 % of control | dose: 50.0 mg/kg/injection, schedule: Q01DX005 (ip), vehicle: saline 105 % of control | dose: 100.0 mg/kg/injection, schedule: Q01DX005 (ip), vehicle: saline 110 % of control

N#CC(C#N)=C1SCS1
inactive: [1] 103 % of control | [2] 111 % of control | [3] 114 % of control

CCOC(=O)c1ccc(NC(=O)/C=C/C(=O)O)cc1
inactive: [8] 100 % of control | [10] 95 % of control | [12] 98 % of control

O=C1c2cccc3cccc(c23)C1(Br)Br
inactive: dose: 75.0 mg/kg/injection, schedule: Q01DX001 (ip), vehicle: other 101 % of control | dose: 150.0 mg/kg/injection, schedule: Q01DX001 (ip), vehicle: other 104 % of control

CN(C)P1(=S)NCCCO1 (stereo unspecified)
inactive: dose: 87.5 mg/kg/injection, schedule: Q01DX009 (ip), vehicle: other 97 % of control | dose: 175.0 mg/kg/injection, schedule: Q01DX009 (ip), vehicle: other 100 % of control | dose: 350.0 mg/kg/injection, schedule: Q01DX009 (ip), vehicle: other 100 % of control

NC(=S)c1ccc(S(=O)(=O)Nc2cccc(Br)c2)cc1
inactive: [20] 103 % of control | [21] 103 % of control | [22] 97 % of control

O=C(NC(=S)c1ccc[nH]1)Nc1ccccc1
inactive: dose: 50.0 mg/kg/injection, schedule: Q01DX009 (ip), vehicle: saline 93 % of control | [17] 90 % of control | [18] 90 % of control

COC(=O)/C=C/c1ccc([N+](=O)[O-])cc1
inactive: [20] 94 % of control and 96 % of control | [21] 96 % of control and 97 % of control | [22] 92 % of control

COc1ccc(/C=C2\SC(=O)NC2=O)cc1
inactive: [4] 91 % of control | [5] 104 % of control | [6] 100 % of control

N#C/C(=C\C1C(Cl)CCCC1Cl)C1CCC([N+](=O)[O-])CC1 (stereo unspecified)
inactive: [7] 101 % of control | dose: 200.0 mg/kg/injection, schedule: Q04DX002 (ip), vehicle: saline with Tween-80 97 % of control | dose: 400.0 mg/kg/injection, schedule: Q04DX002 (ip), vehicle: saline with Tween-80 101 % of control

NC(=Nc1ccc(N)cc1)C(N)=Nc1ccc(N)cc1
inactive: [5] 97 % of control | [6] 95 % of control and 98 % of control | [20] 96 % of control | [23] 106 % of control | [21] 98 % of control | [24] 96 % of control and 112 % of control | [22] 91 % of control

NC(=S)N=Nc1c(O)[nH]c(=O)[nH]c1=O
inactive: dose: 12.5 mg/kg/injection, schedule: Q01DX009 (ip), vehicle: saline with Tween-80 98 % of control | dose: 12.5 mg/kg/injection, schedule: Q04DX003 (ip), vehicle: saline with Tween-80 97 % of control | [4] 104 % of control | dose: 25.0 mg/kg/injection, schedule: Q04DX003 (ip), vehicle: saline with Tween-80 92 % of control | [5] 104 % of control | dose: 50.0 mg/kg/injection, schedule: Q04DX003 (ip), vehicle: saline with Tween-80 96 % of control

CCC(c1ccc(Cl)cc1)N1CCC2(CC1)C(=O)NCN2c1ccccc1 (stereo unspecified)
inactive: [6] 94 % of control | [20] 102 % of control | [23] 96 % of control | [21] 104 % of control | [24] 89 % of control | [22] 91 % of control

N=C(N)C1CCCCC1
inactive: [25] 95 % of control | dose: 200.0 mg/kg/injection, schedule: Q01DX001 (ip), vehicle: saline 97 % of control | [26] 100 % of control

N#Cc1c(Br)n(C2OC(CO)C(O)C2O)c2ncnc(N)c12 (stereo unspecified)
inactive: [25] 123 % of control | dose: 178.0 mg/kg/injection, schedule: Q01DX001 (ip), vehicle: saline 104 % of control and 115 % of control | dose: 267.0 mg/kg/injection, schedule: Q01DX001 (ip), vehicle: saline 110 % of control and 117 % of control | [26] 112 % of control and 121 % of control | dose: 600.0 mg/kg/injection, schedule: Q01DX001 (ip), vehicle: saline 114 % of control

Clc1ccc2c(c1)C(Nc1cc3c4ccccc4ccc3c3ccccc13)c1cc(Cl)cc(Cl)c1-2 (stereo unspecified)
inactive: [8] 88 % of control | [9] 90 % of control | [10] 88 % of control | [11] 95 % of control | [12] 86 % of control | [13] 93 % of control
